The test addresses human Cereblon WT GST-tagged protein (Homo sapiens (Human), UniProt Q96SW2). The experiment in a line: CRBN-binding affinity, HTRF (CEREBLON BINDING kit, CISBIO). As to conditions: HTRF inhibitory activity. On the procedure:
I. Determination of CRBN-binding affinity of compounds of the present disclosure:
The CEREBLON BINDING kits (specification: 10,000 tests; product number: Catalog #64BDCRBNPEH; CISBIO company) was used to determine the CRBN binding ability of the compounds to be tested through a HTRF method (homogeneous time-resolved fluorescence). The specific methods are as follows: • 1. […] Then, 2.5 μL of human Cereblon WT GST-tagged protein solution was added to each well. Finally, 5 μL of the thoroughly mixed Thalidomide-Red reagent and GST Eu antibody working solution were added to each of the aforementioned wells. […] The blank control wells were sequentially added with 2.5 μL of diluent #9 (1X) solution, 2.5 μL of PROTAC binding buffer, and 5 μL of thoroughly mixed Thalidomide-Red reagent and GST Eu antibody working solution. • 4.
The corresponding CRBN binding inhibition rate was calculated using the following method: […]
OD 620 nmcompound is the absorbance value of each well of the compounds to be tested of the present disclosure at an emission wavelength of 620 nm. […] OD 620 nmcontrol is the absorbance value of the blank control well at an emission wavelength of 620 nm. […] OD 620 nmStd0 is the absorbance value of the solvent control well at an emission wavelength of 620 nm.
In general terms: TR-FRET usually uses a lanthanide donor and a delayed reading to cut background.
Sequence of human Cereblon WT GST-tagged protein (Q96SW2 whole entry): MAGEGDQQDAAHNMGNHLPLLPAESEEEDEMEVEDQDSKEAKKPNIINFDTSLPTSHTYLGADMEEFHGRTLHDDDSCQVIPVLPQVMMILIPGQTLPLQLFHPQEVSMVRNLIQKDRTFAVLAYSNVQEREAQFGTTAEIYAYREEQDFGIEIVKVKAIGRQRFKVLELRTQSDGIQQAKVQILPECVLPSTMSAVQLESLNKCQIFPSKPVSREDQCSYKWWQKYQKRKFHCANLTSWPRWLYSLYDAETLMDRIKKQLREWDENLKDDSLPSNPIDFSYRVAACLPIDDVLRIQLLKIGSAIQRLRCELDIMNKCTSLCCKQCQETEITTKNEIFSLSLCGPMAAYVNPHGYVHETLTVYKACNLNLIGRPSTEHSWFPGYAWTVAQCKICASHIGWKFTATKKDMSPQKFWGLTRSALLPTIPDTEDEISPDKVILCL
One may read the IC50 as the concentration that gives 50% inhibition. High values mean a need for much substance, low ones inhibition by little substance. In turn, `O=C1CCC(N2Cc3cc(CN4CCN(C(c5ccc(Cl)cc5)c5ccc(Cl)cc5)CC4)cc(F)c3C2=O)C(=O)N1` (stereo not drawn) [GT-03568, 3-(5-((4-(bis(4-chlorophenyl)methyl)piperazin-1-yl)methyl)-7-fluoro-1-oxoisoindolin-2-yl)piperidine-2,6-dione] returned an IC50 of 1000 to 1900 nM.

Regarding `O=C1CCC(N2Cc3c(ccc(CN4C[C@H]5C[C@@H]4CN5C(c4ccccc4)c4ccccc4)c3F)C2=O)C(=O)N1` (stereo partly drawn) [GT-03573, 3-(5-(((1R,4R)-5-benzhydryl-2,5-diazabicyclo[2.2.1]heptan-2-yl)methyl)-4-fluoro-1-oxoisoindolin-2-yl)piperidine-2,6-dione], the IC50 was under 500 nM.

`O=C1CCC(N2Cc3cc(CN4C[C@H]5C[C@@H]4CN5C(c4ccccc4)c4ccccc4)cc(F)c3C2=O)C(=O)N1` (stereo partly drawn) [GT-03576, 3-(5-(((1R,4R)-5-benzhydryl-2,5-diazabicyclo[2.2.1]heptan-2-yl)methyl)-7-fluoro-1-oxoisoindolin-2-yl)piperidine-2,6-dione] registered a concentration for half-maximal inhibition (IC50) of under 500 nM.

`C[C@@H]1CN(C(c2ccccc2)c2ccccc2)CCN1Cc1cc(F)c2c(c1)CN(C1CCC(=O)NC1=O)C2=O` (stereo partly drawn) [GT-03577, 3-(5-(((R)-4-benzhydryl-2-methylpiperazin-1-yl)methyl)-7-fluoro-1-oxoisoindolin-2-yl)piperidine-2,6-dione] had an IC50 of under 500 nM.

`O=C1CCC(N2Cc3c(CN4CCN(C(c5ccccc5)c5ccccc5)CC4)cccc3C2=O)C(=O)N1` (stereo not drawn) [GT-03646, 3-(4-((4-benzhydrylpiperazin-1-yl)methyl)-1-oxoisoindolin-2-yl)piperidine-2,6-dione] registered an IC50 of 500 to 1000 nM.

Consider `O=C1CCC(N2Cc3cc(CN4CCN(C(c5ccccc5)c5ccccn5)CC4)cc(F)c3C2=O)C(=O)N1` (stereo not drawn) [GT-03834, 3-(7-fluoro-1-oxo-5-((4-(phenyl(pyridin-2-yl)methyl)piperazin-1-yl)methyl)isoindolin-2-yl)piperidine-2,6-dione], for which the IC50 was under 500 nM.

Turning to `CC1CN(C(c2ccccc2)c2ccccc2)CC(C)N1Cc1cc(F)c2c(c1)CN(C1CCC(=O)NC1=O)C2=O` (stereo not drawn) [GT-03874, 3-(5-((4-benzhydryl-2,6-dimethylpiperazin-1-yl)methyl)-7-fluoro-1-oxoisoindolin-2-yl)piperidine-2,6-dione], the IC50 is under 500 nM.

In turn, `O=C1CCC(N2Cc3c(CN4CCN(C(c5cccc(F)c5)c5cccc(F)c5)CC4)cccc3C2=O)C(=O)N1` (stereo not drawn) [GT-03875, 3-(4-((4-(bis(3-fluorophenyl)methyl)piperazin-1-yl)methyl)-1-oxoisoindolin-2-yl)piperidine-2,6-dione] registered an IC50 of 500 to 1000 nM.

`CC1(C)CN(Cc2ccc3c(c2)CN(C2CCC(=O)NC2=O)C3=O)CCN1C(c1ccccc1)c1ccccc1` (stereo not drawn) [GT-04165, 3-(5-((4-benzhydryl-3,3-dimethylpiperazin-1-yl)methyl)-1-oxoisoindolin-2-yl)piperidine-2,6-dione] came in with an IC50 of under 500 nM.

In the case of `CC1(C)CN(Cc2ccc3c(c2F)CN(C2CCC(=O)NC2=O)C3=O)CCN1C(c1ccccc1)c1ccccc1` (stereo not drawn) [GT-04166, 3-(5-((4-benzhydryl-3,3-dimethylpiperazin-1-yl)methyl)-4-fluoro-1-oxoisoindolin-2-yl)piperidine-2,6-dione], the IC50 is 500 to 1000 nM.

Compound `O=C1CCC(N2Cc3cc(CN4C(=O)c5cccc6cccc(c56)C4=O)ccc3C2=O)C(=O)N1` (stereo not drawn) [GT-04244, 2-((2-(2,6-dioxopiperidin-3-yl)-1-oxoisoindolin-5-yl)methyl)-1H-benzo[de]isoquinoline-1,3(2H)-dione] gave an IC50 of under 500 nM.

Compound `O=C1CCC(N2Cc3ccc(CN4CCN(C(c5ccccc5)c5ccccc5)CC4)cc3C2=O)C(=O)N1` (stereo not drawn) [GT-05686, 3-(6-((4-benzhydrylpiperazin-1-yl)methyl)-1-oxoisoindolin-2-yl)piperidine-2,6-dione] returned an IC50 of 1000 to 1900 nM.

Regarding `O=C1CCC(N2Cc3cc(CN4CCN(C(c5ccccn5)c5ccccn5)CC4)cc(F)c3C2=O)C(=O)N1` (stereo not drawn) [GT-05714, 3-(5-((4-(di(pyridin-2-yl)methyl)piperazin-1-yl)methyl)-7-fluoro-1-oxoisoindolin-2-yl)piperidine-2,6-dione], the IC50 is 1000 to 1900 nM.

`O=C1CCC(N2Cc3c(CN4CCN(C(c5ccccn5)c5ccccn5)CC4)cccc3C2=O)C(=O)N1` (stereo not drawn) [GT-05715, 3-(4-((4-(di(pyridin-2-yl)methyl)piperazin-1-yl)methyl)-1-oxoisoindolin-2-yl)piperidine-2,6-dione] showed an IC50 of 1000 to 1900 nM.

With `O=C1CCC(N2Cc3c(ccc(CN4CCN(C(c5cccnc5)c5cccnc5)CC4)c3F)C2=O)C(=O)N1` (stereo not drawn) [GT-05716, 3-(5-((4-(di(pyridin-3-yl)methyl)piperazin-1-yl)methyl)-4-fluoro-1-oxoisoindolin-2-yl)piperidine-2,6-dione], the IC50 was under 500 nM.

With `O=C1CCC(N2Cc3ccc(CN4CCN(C(c5ccc(F)cc5)c5ccc(F)cc5)CC4)cc3C2=O)C(=O)N1` (stereo not drawn) [GT-05719, 3-(6-((4-(bis(4-fluorophenyl)methyl)piperazin-1-yl)methyl)-1-oxoisoindolin-2-yl)piperidine-2,6-dione], the IC50 lay in the range of 500 to 1000 nM.

`O=C1CCC(N2Cc3cccc(CN4CCN(C(c5ccc(F)cc5)c5ccc(F)cc5)CC4)c3C2=O)C(=O)N1` (stereo not drawn) [GT-05720, 3-(7-((4-(bis(4-fluorophenyl)methyl)piperazin-1-yl)methyl)-1-oxoisoindolin-2-yl)piperidine-2,6-dione] returned an IC50 of 1000 to 1900 nM.

`O=C1CCC(N2Cc3c(C(=O)N4CCN(C(c5ccccc5)c5ccccc5)CC4)cccc3C2=O)C(=O)N1` (stereo not drawn) [GT-05721, 3-(4-(4-benzhydrylpiperazine-1-carbonyl)-1-oxoisoindolin-2-yl)piperidine-2,6-dione]: the IC50 was in the range of 500 to 1000 nM.

Compound `O=C1CCC(N2C(=O)c3ccc(CN4C5CC4CN(C(c4ccccc4)c4ccccc4)C5)cc3C2=O)C(=O)N1` (stereo not drawn) [GT-05728, 5-((3-benzhydryl-3,6-diazabicyclo[3.1.1]heptan-6-yl)methyl)-2-(2,6-dioxopiperidin-3-yl) isoindoline-1,3-dione] returned an IC50 of 1000 to 1900 nM.

Compound `O=C1CCC(N2Cc3ccc(CN4CCN(C(c5ccc(Cl)cc5)c5ccc(Cl)cc5)CC4)cc3C2=O)C(=O)N1` (stereo not drawn) [GT-05735, 3-(6-((4-(bis(4-chlorophenyl)methyl)piperazin-1-yl)methyl)-1-oxoisoindolin-2-yl)piperidine-2,6-dione] displayed an IC50 of 1000 to 1900 nM.

As to `O=C1CCC(N2Cc3cccc(CN4CCN(C(c5ccc(Cl)cc5)c5ccc(Cl)cc5)CC4)c3C2=O)C(=O)N1` (stereo not drawn) [GT-05736, 3-(7-((4-(bis(4-chlorophenyl)methyl)piperazin-1-yl)methyl)-1-oxoisoindolin-2-yl)piperidine-2,6-dione], the IC50 fell in the range of 1000 to 1900 nM.

The compound `O=C1CCC(N2Cc3cc(NN4CCN(C(c5ccccc5)c5ccccc5)CC4)ccc3C2=O)C(=O)N1` (stereo not drawn) [GT-05743, 3-(5-((4-benzhydrylpiperazin-1-yl)amino)-1-oxoisoindolin-2-yl)piperidine-2,6-dione] yielded an IC50 of 1000 to 1900 nM.

The compound `O=C1CCC(N2Cc3cc(C=C4CN(C(c5ccccc5)c5ccccc5)C4)ccc3C2=O)C(=O)N1` (stereo not drawn) [GT-05745, 3-(5-((1-benzhydrylazetidin-3-ylidene)methyl)-1-oxoisoindolin-2-yl)piperidine-2,6-dione] displayed an IC50 of under 500 nM.

Regarding `O=C1CCC(N2Cc3cc(NC4CCN(C(c5ccccc5)c5ccccc5)CC4)ccc3C2=O)C(=O)N1` (stereo not drawn) [GT-05864, 3-(5-((1-benzhydrylpiperidin-4-yl)amino)-1-oxoisoindolin-2-yl)piperidine-2,6-dione], the IC50 was under 500 nM.

In turn, `O=C1CCC(N2Cc3cc(N4CC5CCC(C4)N5C(c4ccccc4)c4ccccc4)ccc3C2=O)C(=O)N1` (stereo not drawn) [GT-05865, 3-(5-(8-benzhydryl-3,8-diazabicyclo[3.2.1]octan-3-yl)-1-oxoisoindolin-2-yl)piperidine-2,6-dione] yielded an IC50 of 500 to 1000 nM.

On to `O=C1CCC(N2Cc3cc(-c4ccc(CN5CCN(C(c6ccccc6)c6ccccc6)CC5)cc4)ccc3C2=O)C(=O)N1` (stereo not drawn) [GT-05867, 3-(5-(4-((4-benzhydrylpiperazin-1-yl)methyl)phenyl)-1-oxoisoindolin-2-yl)piperidine-2,6-dione], for which the IC50 fell in the range of 1000 to 1900 nM.

`O=C1CCC(N2Cc3cc(C(=O)N4CCN(C(c5ccc(Cl)cc5)c5ccc(Cl)cc5)CC4)cc(F)c3C2=O)C(=O)N1` (stereo not drawn) [GT-05887, 3-(5-(4-(bis(4-chlorophenyl)methyl)piperazine-1-carbonyl)-7-fluoro-1-oxoisoindolin-2-yl)piperidine-2,6-dione] yielded an IC50 of 1000 to 1900 nM.

For `O=C1CCC(N2Cc3ccc(C(=O)N4CCN(C(c5ccc(Cl)cc5)c5ccc(Cl)cc5)CC4)cc3C2=O)C(=O)N1` (stereo not drawn) [GT-05888, 3-(6-(4-(bis(4-chlorophenyl)methyl)piperazine-1-carbonyl)-1-oxoisoindolin-2-yl)piperidine-2,6-dione], the IC50 was 1000 to 1900 nM.

Compound `O=C1CCC(N2Cc3cc(CN4C[C@@H]5C[C@H]4CN5C(c4ccccc4)c4ccccc4)cc(F)c3C2=O)C(=O)N1` (stereo partly drawn) [GT-05895, 3-(5-(((1S,4S)-5-benzhydryl-2,5-diazabicyclo[2.2.1]heptan-2-yl)methyl)-7-fluoro-1-oxoisoindolin-2-yl)piperidine-2,6-dione] had an IC50 of under 500 nM.

Take `O=C1CCC(N2Cc3cc(CN4CC5CCC(C4)N5C(c4ccccc4)c4ccccc4)c(F)cc3C2=O)C(=O)N1` (stereo not drawn) [GT-05896, 3-(5-((8-benzhydryl-3,8-diazabicyclo[3.2.1]octan-3-yl)methyl)-6-fluoro-1-oxoisoindolin-2-yl)piperidine-2,6-dione]: the IC50 was 500 to 1000 nM.
